Read-outs that look alike come from different tables or passages of the source. Where only a bound is given, the exact number is not on record here.

Series [1] can be described thus: NADPH-dependent phase I metabolic stability in human liver microsomes. It is filed as in vitro ADME. The method, then: (§1) Metabolic stability was measured by monitoring the amount of parent compound that remained in an incubation mixture at designated incubation time points. For the phase I metabolism study, SKN (100 μM) was incubated with liver microsomes (1 mg/mL, rat, mouse, and dog; and 0.5 mg/mL, human), and an NADPH-generation cocktail consisting of nicotinamide adenine dinucleotide phosphate (NADP^+, 1 mM), glucose-6-phosphate (5 mM), glucose-6-phosphate dehydrogenase (1 unit/mL), and MgCl2 (10 mM) in potassium phosphate buffer (0.1 M, pH 7.4) in a total volume of 1 mL. To study phase II glucuronide conjugative metabolism, uridine 5′-diphosphoglucuronic acid (UDPGA) (2 mM) was added as a cofactor. The mixture was incubated in a shaking water bath, and the enzyme reaction was initiated by the addition of NADP^+, UDPGA, or both. Aliquots (100 μL) were removed at 0, 5, 15, 30, 45, and 60 min, and the reaction was terminated by adding two volumes of ice-cold methanol. […] The half-life of SKN was obtained by plotting the remaining amount of SKN against time using Prism 3.0 software (GraphPad, La Jolla, CA, USA). Hepatic intrinsic clearance (CLint, hepatic) was calculated using the following formula [20]:CLint, hepatic = (0.693/t1/2) × (g liver weight/kg body weight) × (mL incubation/mg of microsomal protein) × (mg microsomal protein concentration/g of liver)
(§2) The DAD was set at 280 nm.
In general terms: Liver microsomes are vesicles of endoplasmic reticulum, rich in cytochrome P450 enzymes.

Series [2] in a line: UDPGA-dependent metabolic stability in human liver microsomes. In kind it is in vitro ADME. Conditions: for half-life at 100 µM / CLint scaled at 100 µM: human, pH 7.4, human liver microsomes; for CLint scaled at 100 µM: read-out: CLint, hepatic. The method, then:
as §1, §2

Series [3] can be described thus: UDPGA-dependent metabolic stability in mouse liver microsomes. In kind it is in vitro ADME. The note with it: for half-life at 100 µM / CLint scaled at 100 µM: mouse, pH 7.4, mouse liver microsomes; for CLint scaled at 100 µM: read-out: CLint, hepatic. The method, then:
as §1, §2

The nature of series [4]: UDPGA-dependent metabolic stability in rat liver microsomes. The note with it: for CLint scaled at 100 µM: read-out: CLint, hepatic; for half-life at 100 µM: rat, pH 7.4, rat liver microsomes. It is filed as in vitro ADME. The method, then: as §1, §2
The nature of series [5]: UDPGA-dependent metabolic stability in dog liver microsomes. It is filed as in vitro ADME. Conditions: for Amount Remaining at 30 min (%): dog liver microsomes; for half-life at 100 µM / CLint scaled at 100 µM: dog, liver microsomes, pH 7.4, dog liver microsomes; for CLint scaled at 100 µM: read-out: CLint, hepatic. The method, then:
as §1, §2

A further series concerns the target T1, CYP1A2 (Homo sapiens, UniProt P05177).
T1 sequence (P05177 1-516): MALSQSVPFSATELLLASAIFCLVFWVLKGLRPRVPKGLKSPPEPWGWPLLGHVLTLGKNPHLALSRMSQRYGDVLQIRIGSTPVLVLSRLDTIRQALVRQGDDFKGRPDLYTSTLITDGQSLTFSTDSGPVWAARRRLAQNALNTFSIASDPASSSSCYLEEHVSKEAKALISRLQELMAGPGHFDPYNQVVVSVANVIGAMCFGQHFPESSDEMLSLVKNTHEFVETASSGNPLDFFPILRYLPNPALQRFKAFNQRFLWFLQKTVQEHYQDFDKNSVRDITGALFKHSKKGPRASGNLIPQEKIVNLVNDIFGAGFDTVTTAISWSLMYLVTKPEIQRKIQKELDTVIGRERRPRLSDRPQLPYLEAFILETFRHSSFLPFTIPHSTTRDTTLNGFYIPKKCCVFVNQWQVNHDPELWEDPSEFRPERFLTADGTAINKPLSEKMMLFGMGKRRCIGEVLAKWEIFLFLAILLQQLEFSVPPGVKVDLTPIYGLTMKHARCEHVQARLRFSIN
Kind of series: CYP inhibition in human liver microsomes, phenacetin O-deethylation (PCOD). It is filed as in vitro ADME. Conditions: pH 7.4, probe phenacetin (O-deethylation, PCOD).
From the text: as §2

Series [6] relates to hCAR-mediated CYP2B6 promoter. Nature of the series: CAR-mediated CYP2B6 promoter luciferase assay in HepG2 cells. It is filed as cell-based, human. The note with it: pcDNA3-CAR-transfected HepG2 cells, 24 h; CITCO 500 nM. The method, then:
(§3) HepG2 cells (American Tissue Culture Collection, Manassas, VA, USA) were maintained in Dulbecco’s modified Eagle’s essential medium (DMEM), containing 10% fetal bovine serum, 1% nonessential amino acids, 1% GlutaMAX®, and 1% antibiotics/antimycotics at 37 °C in a 5% CO2 atmosphere. The expression plasmid encoding the human constitutive androstane receptor (hCAR; pcDNA3-CAR) and the pGL3-CYP2B6 luciferase construct were kindly provided by Dr. Hongbing Wang (University of Maryland, College Park, MD, USA). The plasmid encoding the human pregnane X receptor (hPXR; pcDNA3-PXR) and the pGL3-CYP3A4 luciferase construct were obtained from Dr. Masahiko Negishi at the National Institutes of Health (Bethesda, MD, USA). Cells were seeded at a density of 1.5 × 10^5 cells/well into a 24-well plate. The next day, the cells were transfected with 0.25 μg of either pcDNA3-CAR or pcDNA3-PXR and 0.25 μg of a promoter luciferase plasmid (either pGL3-CYP2B6 or pGL3-CYP3A4) using Lipofectamine 2000 (Invitrogen, Carlsbad, CA, USA) according to the manufacturer’s instructions. […] The cells were harvested and luciferase activity was measured as described previously.

The test system of series [7] is hPXR-mediated CYP3A4 promoter. Nature of the series: PXR-mediated CYP3A4 promoter luciferase assay in HepG2 cells. In kind it is cell-based, human. Conditions: pcDNA3-PXR-transfected HepG cells, SKN 20 μM, 24 h. The method, then:
as §3

For series [8], the target named is T2, CYP2C9 (Homo sapiens, UniProt P11712). Kind of series: in vitro. Conditions: human liver microsomes, pH 7.4, probe diclofenac (4′-hydroxylation, DCHY), 200 µM.
Protocol: (§4) The formation of a metabolite from a CYP isozyme-specific phenotyping reaction (Table 4) was monitored. Each substrate (200 μM), along with SKN (10 μM), was incubated with human liver microsomes (0.5 mg/mL) and an NADPH-generating system in 0.1 M potassium phosphate buffer (pH 7.4) at 37 °C for 60 min in a total volume of 200 μL in a shaking water bath. The metabolic reaction was initiated by adding NADP^+ (1 mM) and stopped by adding 10 μL of trichloroacetic acid. In some experiments, the microsomes were pre-incubated with SKN for 15 min prior to the addition of the cofactor, in order to determine the time-dependent inhibitory effect. […] In contrast, co-incubation refers to experiments in which microsomes and cofactors were incubated in the presence of SKN. After centrifugation of incubation samples at 12,000× g for 15 min at 4 °C, the supernatant (20 μL) was injected into an HPLC-DAD system to analyze the metabolites formation (Supplementary Materials).
(§5) The DAD was set at 248 nm for phenacetin O-deethylation (PCOD), 298 nm for bupropion hydroxylation (BPHY), 276 nm for diclofenac 4′-hydroxylation (DCHY), 230 nm for tolbutamide 6-hydroxylation (TOLHY), 280 nm for dextromethorphan O-demethylation (DEXOD), and 250 nm for testosterone 6β-hydroxylation (TSTHY) and testosterone β-D-glucuronidation (TSTG).
Series [9] deals with T2, CYP2C9. Kind of series: in vitro. The note with it: human liver microsomes, pH 7.4, probe tolbutamide (6-hydroxylation, TOLHY), 200 µM.
Protocol: as §4, §5

T2 sequence (P11712 whole entry): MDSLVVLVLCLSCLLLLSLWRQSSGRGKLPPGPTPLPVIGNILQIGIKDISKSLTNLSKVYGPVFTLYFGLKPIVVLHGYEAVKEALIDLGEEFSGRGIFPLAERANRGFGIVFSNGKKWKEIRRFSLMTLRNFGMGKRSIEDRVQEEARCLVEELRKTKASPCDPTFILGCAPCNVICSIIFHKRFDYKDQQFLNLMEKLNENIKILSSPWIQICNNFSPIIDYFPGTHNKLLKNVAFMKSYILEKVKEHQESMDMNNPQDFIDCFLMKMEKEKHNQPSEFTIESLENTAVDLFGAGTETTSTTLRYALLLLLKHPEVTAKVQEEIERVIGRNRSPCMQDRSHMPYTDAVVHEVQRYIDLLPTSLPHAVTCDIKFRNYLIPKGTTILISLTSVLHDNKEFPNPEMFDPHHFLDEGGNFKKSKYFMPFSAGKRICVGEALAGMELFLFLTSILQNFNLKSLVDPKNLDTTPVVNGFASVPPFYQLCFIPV

For the molecule `COc1cc(O)c2c(c1)OC(c1ccc(O)cc1)CC2=O` (racemic) [SKN, (+/−) 7-O-methylnaringenin], the “Amount Remaining at 30 min (%)” value in [1] (human liver microsomes 0.5 mg/mL, SKN 100 μM) amounted to 65.5%; in series [2] (NADPH +), 54.9%; in series [2] (NADPH −), 71.3%; in series [3] (NADPH +) it was 0.0%; in series [3] (NADPH −), 1.8%; in series [4] (NADPH +), 0.0%. Further, the “Amount Remaining at 30 min (%)” value came to 17.1% in series [4] (NADPH −), 0.0% in [5] (NADPH +) and 42.4% in [5] (NADPH −). The “amount of SKN remaining after 60 min of incubation” value in [1] (human liver microsomes, 60 min) is reported as “greater than 50%”. In addition, the half-life at 100 µM in [1] (pH 7.4, human liver microsomes) is over 60 min; in [2] (NADPH +) it was 25 min; in series [2] (NADPH −) it was over 30 min; in series [3] (NADPH +) it was 0.9 min; in series [3] (NADPH −), 3.8 min; in series [4] (NADPH +), 2.2 min. The half-life at 100 µM in series [4] (NADPH −) came out at 4.4 min; in series [5] (NADPH +), 5.8 min; in series [5] (NADPH −), 24.2 min. Further, the CLint scaled at 100 µM in series [1] (pH 7.4, human liver microsomes, read-out: CLint, hepatic) was under 20.8 mL/min/kg; in series [2] (NADPH +) it was 49.9 mL/min/kg; in series [2] (NADPH −), under 41.6 mL/min/kg; in series [3] (NADPH +), 3280 mL/min/kg; in series [3] (NADPH −), 802 mL/min/kg; in series [4] (pH 7.4, NADPH +), 557 mL/min/kg. For the same molecule, the CLint scaled at 100 µM in series [4] (pH 7.4, NADPH −) was 287 mL/min/kg; in [5] (NADPH +) it was 300 mL/min/kg; in series [5] (NADPH −), 71.4 mL/min/kg. For the same molecule, the “t1/2” value in series [3] (NADPH +) was found to be 0.91 min. The inhibition at 60 min, 10 µM on CYP1A2 (liver microsomes, 200 μM, SKN 10 μM, 15 min pre-incubation, read-out: % Inhibition in Pre-Incubation) worked out at 1.5 ± 2.1%; on CYP1A2 (liver microsomes, 200 μM, SKN 10 μM, human liver microsomes, read-out: % Inhibition in Co-Incubation) it was 0.4 ± 0.5%. In addition, the “CYP2B6 luciferase activity increase” value in [6] was “not affected”. The CYP3A4-luciferase activity increase in [7] is reported as 3.8 fold.

On to `O=C1C[C@@H](c2ccc(O)c(O)c2)Oc2cc(O)cc(O)c21` [Eriodictyol, 3′-hydroxynaringenin], for which the inhibition at 60 min, 10 µM at CYP1A2 (human liver microsomes, 200 µM, inhibitor 10 M [sic], human liver microsomes 0.5 mg/mL, read-out: Inhibition (%)) worked out at 15.9 ± 1.8%; on CYP2C9 [8], 1 ± 0.7%; against CYP2C9 [9], 7.7 ± 0.4%.

Take `O=C1C[C@@H](c2ccc(O)cc2)Oc2cc(O)cc(O)c21` [Naringenin]: the inhibition at 60 min, 10 µM worked out at 9.1 ± 1.8% against CYP2C9 [8] and 12 ± 0.7% on CYP2C9 [9].

What is called half-life is the time needed for the level to fall by half in the phase considered. The inhibition is the percentage by which the read-out fell short of the control.

For the origin of these results see paper PMC6100415, “Hepatic Metabolism of Sakuranetin and Its Modulating Effects on Cytochrome P450s and UDP-Glucuronosyltransferases” (Molecules : A Journal of Synthetic Chemistry and Natural …, 2018).
